Measurements published in patent US5162203A, “Methods of measuring isozymes and isozyme classes of alcohol dehydrogenase” (President and Fellows of Harvard College, priority 1989, dated 1992).
Like-named read-outs stand apart in the source and are kept apart here.

What was measured:
[1] = tested on: β1 β1 ADH (Class I); assay: Inhibition of β1β1 (ββ) ADH; type: biochemical, human
Experimental: (§1) The linear increase of fluorescence was then recorded for 1-10 minutes, until 0.03-1 μM of substrate was consumed. Larger substrate consumption was not found to be desirable (described in subpart (c) below). After this period the instrument sensitivity setting was reduced 10-30 fold, the signal compensated once again by zero suppression (see part 6 above), and 60 μl of 200-400 μM product (e.g., product IB or IIB) was added to provide an internal standard. The added product fluorescence intensity was then measured Fluorescence measurements were optimized for samples with low activity (<1 nM/minute). For samples with higher activity, repeat measurements were made with the serum volume reduced from 60 μl to 10 μl. Rates measured in the presence of the 0.2 mM ADH inhibitors. 4-MeP or 4-PeP, were made by adding 50 μl of 12 mM inhibitor to the cuvette prior to the assay buffer, and the reaction was carried out as above.
(§2) Aldehyde reduction and 4-MeP inhibition are near optimal at pH 7.6 which was adopted for the study of serum samples.

[2] = target: T1, β2 β2 ADH (Class I) (Homo sapiens, UniProt P00325); assay: Inhibition of β2β2 ADH; type: biochemical; settings: 0.2 mM 4-MeP
T1 construct: beta2 allele (ADH1B*2)
T1 sequence (P00325 2-375): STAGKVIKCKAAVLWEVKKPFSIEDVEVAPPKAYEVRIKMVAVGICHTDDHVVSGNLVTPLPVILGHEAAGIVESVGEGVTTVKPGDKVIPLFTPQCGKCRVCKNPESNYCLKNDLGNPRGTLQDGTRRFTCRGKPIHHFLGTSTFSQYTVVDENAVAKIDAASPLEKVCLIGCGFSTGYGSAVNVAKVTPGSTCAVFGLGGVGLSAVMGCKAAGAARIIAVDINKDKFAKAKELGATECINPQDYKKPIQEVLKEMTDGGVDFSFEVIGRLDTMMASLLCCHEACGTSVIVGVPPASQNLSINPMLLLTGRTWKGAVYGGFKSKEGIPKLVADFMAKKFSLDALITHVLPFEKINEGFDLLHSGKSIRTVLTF
Experimental: as §1, §2

[3] = tested on: Class I ADH; assay: Inhibition of Class I ADH; type: biochemical, human; settings: for Class I ADH activity abolished: 0.2 mM inhibitor
Experimental: as §1, §2
(§3) The values for these constants were determined with purified Class II ADH or a mixture of purified Class I isozymes, under the fluorometric assay conditions described above in Example 1.

[4] = target: T2, Class II ADH (Homo sapiens, UniProt P08319); assay: Inhibition of Class II ADH; type: biochemical; design: was used to purify Class II ADH from human livers; from tissue; host or cells: human liver
T2 sequence (P08319 2-380 limits assumed): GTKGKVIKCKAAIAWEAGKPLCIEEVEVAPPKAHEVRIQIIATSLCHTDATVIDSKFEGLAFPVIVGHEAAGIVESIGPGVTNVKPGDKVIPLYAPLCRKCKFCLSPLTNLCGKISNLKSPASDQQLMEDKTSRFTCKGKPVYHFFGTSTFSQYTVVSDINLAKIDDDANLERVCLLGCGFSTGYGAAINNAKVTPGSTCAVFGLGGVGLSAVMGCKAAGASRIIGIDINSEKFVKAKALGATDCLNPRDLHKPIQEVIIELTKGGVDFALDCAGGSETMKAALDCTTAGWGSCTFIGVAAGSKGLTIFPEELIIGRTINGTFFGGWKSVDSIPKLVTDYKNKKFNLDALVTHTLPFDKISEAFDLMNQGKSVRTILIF
Experimental: as §1, §2, §3

[5] = target: T3, ADH activity in human serum (Homo sapiens, UniProt P08319); assay: Inhibition of ADH activity in human sera; type: biochemical; settings: 17 healthy volunteers
T3 construct: from tissue; host or cells: human serum of patients and volunteers
T3 sequence (P08319 whole entry): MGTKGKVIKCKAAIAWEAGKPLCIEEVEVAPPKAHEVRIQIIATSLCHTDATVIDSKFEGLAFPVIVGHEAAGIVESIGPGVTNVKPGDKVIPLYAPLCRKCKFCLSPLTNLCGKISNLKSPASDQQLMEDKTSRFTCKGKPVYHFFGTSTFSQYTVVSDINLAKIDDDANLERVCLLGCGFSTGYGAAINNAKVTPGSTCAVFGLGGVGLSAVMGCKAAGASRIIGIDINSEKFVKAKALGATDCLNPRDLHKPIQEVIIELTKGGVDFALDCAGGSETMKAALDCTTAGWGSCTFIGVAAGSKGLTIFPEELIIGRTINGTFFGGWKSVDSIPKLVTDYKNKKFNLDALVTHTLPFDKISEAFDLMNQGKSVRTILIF
Experimental: as §1
(§4) The activities of a large group of serum samples were further examined for inhibition by 4-MeP and 4-PeP, both at 0.2 mM, a concentration that abolishes 95-98% of the Class I and Class II ADH activity as shown in Table IV above. […] In contrast, 4-PeP inhibited activity toward IA by greater than […] and IIA by more than 90% in virtually all samples examined (FIG. 8C). The total number of samples examined was 83 for FIG. 8A, 105 for FIG. 8B, and 44 for FIG. 8C.
(§5) Sera whose ADH activity was increased beyond those seen normally were selected based on the modified NDMA assay as described in part 7 of Example 1. In approximately 3% of several hundred random hospital patients tested, elevations in ADH activity were observed using the modified NDMA assay described in part 7 of Example 1. These sera with elevated levels (>2 NDMA mU/ml) were then tested by the fluorometric assay described in part 8 of Example 1 using IA as substrate. Class I ADH activity was detected in nearly all of those classified as having elevated ADH levels by the NDMA criterion. The fluorescent reaction product was analyzed and confirmed to be the alcohol ADH product IB. The observed reaction was inhibited >95% by 3 mM 4-MeP; this confirmed that the activity observed was due primarily to Class I ADH. The rate of reduction of IA was also diminished by the addition of high concentrations (>>Km) of typical ADH substrates, e.g., 0.5 mM benzaldehyde or butyraldehyde, presumably due to competition. […] The optimal dilution for routine measurements was approximately 50-fold.

[6] = tested on: ADH activity in human serum; assay: Inhibition of ADH activity in human sera; type: biochemical; settings: for effect on rate of reduction of IA in sera with elevated ADH: 0.5 mM
Experimental: as §1, §4, §5

[7] = target: T4, Class III ADH (Homo sapiens, UniProt P11766); assay: Inhibition of Class III ADH; type: biochemical
T4 construct: Adult human livers were obtained at autopsy; from tissue; host or cells: human liver obtained at autopsy
T4 sequence (P11766 2-374 limits assumed): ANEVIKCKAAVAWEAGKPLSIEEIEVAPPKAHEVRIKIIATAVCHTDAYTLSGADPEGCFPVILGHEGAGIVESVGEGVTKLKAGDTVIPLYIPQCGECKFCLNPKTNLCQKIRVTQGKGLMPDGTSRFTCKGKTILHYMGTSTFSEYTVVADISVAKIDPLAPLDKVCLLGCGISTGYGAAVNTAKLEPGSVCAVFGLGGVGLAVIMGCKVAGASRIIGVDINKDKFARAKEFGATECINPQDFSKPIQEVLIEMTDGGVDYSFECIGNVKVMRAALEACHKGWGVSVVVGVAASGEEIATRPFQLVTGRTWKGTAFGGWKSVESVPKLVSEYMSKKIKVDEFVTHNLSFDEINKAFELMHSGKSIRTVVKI
Experimental: With a high Km value of >0.5 mM, substrate IIA is completely insensitive for Class III ADH. Because Class III ADH has greater hydrophobic selectivity than Classes I and II ADH, naphthaldehydes and quinoline aldehydes which have aliphatic side chains may provide adequate sensitivity for measuring the amount of Class III ADH in serum. In addition because of its greater hydrophobic selectivity, inhibitor compounds such as 4-alkylpyrazoles having aliphatic side chains of 5 carbons (e.g., 4-PeP) or greater may provide, under certain conditions and at certain concentrations, adequate selectivity for measuring Class III ADH in the presence of Classes I and II. […] At 100 μM 4-PeP, the values for inhibition are: Classes I and II, >90%; Class III <10%. Thus, under certain conditions 4-PeP is clearly useful as a selective inhibitor of Class I and II activities, leaving >90% of Class III activity intact and measurable.

[8] = tested on: Class I ADH; assay: Inhibition of Class I ADH; type: biochemical, human
[9] = Fluorescence quenching of alcohol products in 50-fold diluted serum; type: physicochemical, human; settings: 50-fold dilution of serum
Text: Human serum is known to fluoresce over a broad spectral region (Wolfbeis et al., 1985. Anal. Chim. Acta. 167:203-315); the instrumental settings should therefore be chosen to optimize the signal/background noise ratio. […] A 50-fold dilution of serum minimizes interference and maximizes sensitivity. At this dilution, alcohol product IB is only quenched 15% while IIB is quenched 5%. […] The cause of this background fluorescence is unknown

[10] = Spectral parameters for absorption and fluorescence of ADH substrates and products; type: physicochemical; settings: for Absorption εmax / Absorption λmax / Fluorescence .phi. (quantum yield) / Fluorescence λmax: Mes buffer (45 mM), pH 7.0
Experimental: The spectral parameters for 4-methoxy-1-naphthaldehyde (IA), 6-methoxy-2-naphthaldehyde (IIA) and their reduction products (IB and IIB, respectively) are shown in Table I.
Ultraviolet absorption spectra were measured on a Cary 219 or Hewlett-Packard 8451 spectrophotometer. Fluorescence measurements were made in a Perkin Elmer MPF3 spectrofluorometer, equipped with an Osram XBO 150 Watt Xenon lamp, an R446 photomultiplier, and thermostatted cell holder through which water was passed from a Poly-Temp circulator with the following spectrometer settings: excitation wavelength 316 nm. bandwidth 8 nm for both substrate IA and IIA; emission wavelength. 370 nm for substrate IA and 360 nm for substrate IIA, emission bandwidth 24 nm. Changes in fluorescence as a result of oxidation or reduction of the substrate was then measured in the ratio mode. Generally, for fluorometric reactions (see part 8 below). a sensitivity setting of 3 was used with compensation of fluorescence background by the zero suppression control of the instrument.
Aldehyde reduction was monitored by following the decrease of absorption at 340 nm in 40 mM Mes buffer, pH 7.1. in the presence of saturating NADH, 50 μM for Class I and 100 μM for Class II. […] Initial reaction rates were measured and kinetic parameters determined by conventional procedures as described by Segel, 1975, Enzyme Kinetics, pp. 591-597, Wiley, N.Y.

[11] = Stability of substrates and product solutions; type: physicochemical; settings: 200-400 μM, water with <5% ethanol
Experimental: The dilute solutions (300 μM) were prepared by diluting 1 ml of the stock solution to 10 ml with water.
Concentrations were determined spectrophotometrically using a molar absorptivity of 5700 M^-1 cm^-1 at 296 nm for IB and 1270 M^-1 cm^-1 at 330 nm for IIB.

[12] = target: T2, Class II ADH; settings: Class II versus other ADH isozymes; cited from earlier work
[13] = 0.2 mM inhibitor, read-out: Class II ADH activity abolished
[14] = 1 mM 4-PeP, pH 10, 0.1M glycine buffer

In the case of Cc1cn[nH]c1 [4-MeP, 4-Methylpyrazole], the “4-MeP Inhibition” value ([1]; 0.2 mM 4-MeP, substrate IA) was ~ 95%, the “4-MeP Inhibition” value ([1]; 0.2 mM 4-MeP, substrate IIA) was 98% and the “e: fraction of ββ-ADH activity uninhibited” value ([1]; 0.2 mM 4-MeP, substrate IIA) was 0.025. The “inhibition of Class I ββ isozymes” value ([1]; words) was “inhibited readily”, the “4-MeP Inhibition” value ([2]; substrate IA, nm = not measurable) was “nm” and the inhibition at 200 µM ([2]; substrate IIA) was 97%. For the same compound, the “inhibition of all Class I isozymes” value ([3]; 0.2 mM 4-MeP, 15 μM IA or IIA, pH 7.6) was “more than 90%”, the “4-MeP Inhibition” value ([3]; 0.2 mM 4-MeP, substrate IA) was 98% and the “b: Class I activity fraction retained” value ([3]; 0.2 mM 4-MeP, substrate IA) was 0.025. The “4-MeP Inhibition” value ([3]; 0.2 mM 4-MeP, substrate IIA, average for Class I except ββ) was 92%, the “Class I ADH activity abolished” value [3] was 95-98% and the “enhancement of assay specificity for Class I and II isozymes with the two substrates” value ([3]; 4-MeP, Class I relative to Class II) was “about 100 fold”. It also gave an inhibition at 200 µM ([4]; 0.2 mM 4-MeP, 15 μM IA or IIA, pH 7.6, read-out: inhibition of Class II ADH) of 11%, an inhibition at 200 µM ([4]; 0.2 mM 4-MeP, substrate IA, read-out: 4-MeP Inhibition) of 11% and an inhibition at 200 µM ([4]; 0.2 mM 4-MeP, substrate IIA, as fraction, read-out: c: degree of inhibition of Class II ADH) of 11%. The inhibition at 200 µM [4, 13] was 95 to 98%, the “effect on activity towards IIA in normal sera” value ([5]; 4-MeP) was “insensitive” and the “activity toward IIA remaining in sera” value ([6]; 0.2 mM 4-MeP, 105 samples) was at least 70%. For the same compound, the “inhibition of IA activity in sera” value ([6]; 0.2 mM 4-MeP, majority of samples (83)) was “more than 90%” and the “inhibition of IA reaction in sera with elevated ADH” value ([6]; 3 mM 4-MeP) was over 95%.

In the case of CCCCCc1cn[nH]c1 [4-PeP, 4-Pentylpyrazole], the inhibition at 100 µM ([7]; 100 μM 4-PeP) was under 10%, the inhibition at 1000 µM [7, 14] was 60% and the activity at 100 µM ([7]; 4-PeP, under certain conditions, read-out: Class III activity left intact and measurable) was over 90%. For the same compound, the inhibition ([8]; 100 μM 4-PeP) was over 90%, the inhibition of activity [8, 14] was over 99.99% and the “Class I ADH activity abolished” value [3] was 95-98%. The “inhibition of Class I activity” value ([3]; 4-PeP, substrate IA) was “greater than 99%”, the inhibition at 100 µM ([4]; 100 μM 4-PeP) was over 90% and the inhibition at 200 µM [4, 13] was 95 to 98%. The inhibition at 1000 µM [4, 14] was over 100%, the “inhibition of Class II activity” value ([4]; 4-PeP, substrate IIA) was “more than 90%” and the “effect on activity towards IIA in normal sera” value ([5]; 0.2 mM 4-PeP) was “abolished”. The “inhibition of IIA activity in sera” value ([6]; 0.2 mM 4-PeP, virtually all samples (44)) was “more than 90%”.

For COc1ccc(CO)c2ccccc12 [IB, 4-methoxy-1-naphthalenemethanol], the fluorescence quenching [9] was 15%, the “Absorption εmax” value [10] was 5,400 M^-1 cm^-1 and the “Absorption λmax” value [10] was 297 nm. The “Fluorescence .phi. (quantum yield)” value [10] was 0.36, the “Fluorescence λmax” value [10] was 370 nm and the molar absorptivity ([10]; at 296 nm) was 5700 M⁻¹ cm⁻¹. The “stability of product solutions” value [11] was “stable for up to a week”.

In the case of COc1ccc2cc(CO)ccc2c1 [IIB, 6-methoxy-2-naphthalenemethanol], the fluorescence quenching [9] was 5%, the “Absorption εmax” value [10] was 1,250 M^-1 cm^-1 and the “Absorption λmax” value [10] was 329 nm. The “Fluorescence .phi. (quantum yield)” value [10] was 0.26, the “Fluorescence λmax” value [10] was 355 nm and the molar absorptivity ([10]; at 330 nm) was 1270 M⁻¹ cm⁻¹. The “stability of product solutions” value [11] was “stable for up to a week”.

In the case of O=Cc1ccccc1 [benzaldehyde], the “effect on rate of reduction of IA in sera with elevated ADH” value [6] was “diminished”.

In the case of CCCC=O [butyraldehyde], the “effect on rate of reduction of IA in sera with elevated ADH” value [6] was “diminished”.

For CCO [ethanol], the “Km for ethanol of Class II relative to other ADH isozymes” value [12] is listed as at most 100 times.
